According to US20220031670A1, “PHARMACEUTICAL COMBINATIONS FOR USE IN THE TREATMENT OF NEOPLASTIC DISEASES” (Basilea Pharmaceutica International AG, priority 2018, published 2022):
Marks after values point to notes of the source that are not given here.

How the values were obtained:
[1] = Pharmacokinetic profile in mouse plasma (LC-MS/MS), single agents versus combination; assay type: in vivo, PAXF1657 tumor bearing mice; settings: 10 minutes to 24 hours, BAL101553 oral, Gemcitabine 240 mg/kg i.v. 4 hours before BAL101553
Description: PAXF1657 tumor bearing mice of the identical strain were treated either with BAL101553 oral 10 mg/kg, Gemcitabine 240 i.v. mg/kg or with a combination of BAL101553 and Gemcitabine where Gemcitabine was administered 4 hours before BAL101553. Control animals received appropriate vehicle control. The mice were dosed until steady state was reached (BAL101553 was dosed d1-d3 and Gemcitabine was dosed on day 3, the doses used for the combination-treatment matched those used in the monotherapy). Blood was taken from every animal according to a determined schedule covering a time window of 10 minutes to 24 hours, processed for plasma and subsequently analyzed by LC-MS/MS for the determination of BAL27862 (parent drug of BAL101553) and Gemcitabine concentrations (ng/ml plasma). Data points represent mean values of ng/ml plasma concentration+/−SEM (n=3 animals). […]
The following calibration ranges in mouse plasma were applied: 1.00 to 500 ng/mL and 10 to 10000 ng/mL for BAL27862 and 10.0 to 10000 ng/mL for BAL101553 and Gemcitabine. Thus, the limit-of-quantitation (LOQ) was: 1 ng/mL for BAL27862 and 10.0 ng/mL for BAL101553 and Gemcitabine. […]

[2] = system: patient-derived pancreatic tumour PAXF1657 xenograft; assay: Antitumor efficacy and induction of cures in the patient-derived PAXF1657 pancreatic xenograft model; assay type: in vivo, female NMRI nu/nu mice; settings: for # of regressed tumors (total) / T/C: day 21 after first dose; for # of confirmed cures (total) / # of tumors with TV ≤ 4 mm^3 (total) / % cures: day 60 after first dose (endpoint); for tumor free animals / cures (in words): single agent treatment (BAL101553 even at 16 mg/kg; Gemcitabine SoC)
Description: The tumor xenografts are derived from surgical specimens from cancer patients. Following excision at surgery, tumor pieces were subcutaneously implanted into immunodeficient mice and are therefore referred to as patient tumor explants passaged subcutaneously in nude mice or as patient-derived tumor xenografts (PDX). Establishment and characterization of the PDXs was performed following their primary implantation into immunodeficient mice (passage 1). The tumor xenografts were passaged until establishment of a stable growth pattern. At that point, master stocks of early passage PDXs were frozen in liquid nitrogen. Usually, a particular stock batch is only used for a limited number of further passages.
Tumor fragments for implantation were obtained from xenografts in serial passage in female NMRI nu/nu mice (NMRI-Foxn1nu). After removal from donor mice, tumors were cut into fragments (3-4 mm edge length) and placed in PBS containing 10% penicillin/streptomycin. Recipient female mice (10 weeks old NMRI-Foxn1nu animals) were anesthetized by inhalation of isoflurane and received unilateral tumor implants of PAXF1657 tumors subcutaneously in the flank.
Mice and tumor implants were monitored daily until solid tumor growth was detectable in a sufficient number of animals. At randomization, the volume of growing tumors was determined. Tumors were measured (mm) in two dimensions using calipers, and volume was calculated using the formula: Tumor Volume (TV) (mm^3)=(width^2×length)/2. […] Sixteen days after tumor cell implantation, on Day 0 of the study, mice were randomized into groups of 10 animals, with group median tumor volumes of 106.6-109.2 mm^3 and body weights of 25.3-27.0 g.
The solution of BAL101553 with a concentration of 1.6 mg/ml for dosing at 16 mg/kg and as stock solution for the preparation of the other dosing solutions was prepared at the beginning of the study by dissolving 595.2 mg of the provided powder in 300 ml vehicle (stirring/vortexing/sonicating if necessary). The acidity of this solution was adjusted to pH 5 with a 1% sodium acetate solution; afterwards the total volume was adjusted to 372 ml by addition of the vehicle (99.7% (v/v) saline solution (0.9% (w/v) NaCl), 0.3% (v/v) sodium acetate, pH 5). The stock solution was sterile filtered and aliquoted into vials of each 12 ml that were stored at −20° C. One vial was thawed on each dosing day. For the 16 mg/kg dose, the solution was applied undiluted; for 8 mg/kg dose, one volume of the stock solution was diluted with one volume vehicle prior to application; and for 10 mg/kg dose, one volume of the stock solution was diluted with 0.6 volumes vehicle
The Gemcitabine dosing solution at a concentration of 24 mg/ml for dosing at 240 mg/kg was prepared once per week on the dosing day by dissolving 591.89 mg of Gemcitabine-HCl (Gemedac®, Medac Germany) corresponding to 264 mg active pharmaceutical ingredient in 11 ml of the vehicle (0.9% (w/v) NaCl). The dosing solution was administered in a dose volume of 10 ml/kg.
All doses were adjusted to 10 mL/kg. […] Gemcitabine was administered i.v. and BAL101553 orally.
The antitumor effect of the combination treatment with BAL101553 (prodrug of BAL27862) and gemcitabine was evaluated in the established in vivo subcutaneous patient-derived pancreatic mouse xenograft model PAXF1657. By using 3 different dosing regimens of BAL101553 as monotherapy, standard of care (SoC) dosing of gemcitabine monotherapy and the combination treatment of two different dosing regimens of BAL101553 with SoC gemcitabine, the anticancer effect of single agent treatments and of the combined treatments were determined and compared. […]

[3] = Tolerability (body weight, mortalities) in the PAXF1657 pancreatic xenograft model
Description: Animals were housed in individually ventilated cages ([…] Sealsafe™-IVC-System, […], Hohenpeissenberg, Germany), depending on group size, either in type III or type II long cages. They were kept under a 14 L:10D artificial light cycle. The temperature inside the cages was maintained at 25±1° C. with a relative humidity of 40-70% and an air change (AC) rate in the cage of 60-65 AC/hour. Dust-free bedding consisting of aspen wood chips with approximate dimensions of 5×5×1 mm (ABEDD®-LAB & VET Service GmbH, Vienna, Austria, Product Code: LTE E-001) and additional nesting material were used. The cages including the bedding and the nesting material were changed weekly. The animals were fed autoclaved Teklad Global 19% Protein Extruded Diet (T.2019S.12) from Envigo RMS SARL and had access to sterile filtered and acidified (pH 2.5) tap water that was changed twice weekly. Feed and water were provided ad libitum. All materials were autoclaved prior to use. Animals were provided with a nutrient fortified water gel (DietGel® Recovery from ClearH2O, Maine, USA) from day 0 to day 45, which was changed every other day.
Groups of mice (n=10) bearing PAXF1657 tumors were dosed as outlined in Table 1. All doses were adjusted to 10 mL/kg. The control groups received oral doses of vehicle (pH 5 buffered 0.9% NaCl solution). Gemcitabine was administered i.v. and BAL101553 orally. When Gemcitabine and BAL0101553 were dosed in combination, Gemcitabine was administered first followed by a delay of 4 h for the BAL0101553 dosing.
Body weights and tumor volumes were recorded twice weekly until the end of the on day 60. These parameters were analyzed and graphically represented by using GraphPad-Prism™ 7 for Windows according to standard procedure. Tumor growth regression was defined as TV (at day 21)−TV (day 0)<0. […] Tumor free animals at the end of the study time (day 60) were assessed for residual PAXF1657 tumor cells by pathological methods. Skin und subcutaneous tissue including the tumor cell inoculation site from the flank region were resected, preserved in formalin and embedded in paraffin. Sections of approximately 5 μm were mounted on glass slides and stained with hematoxylin/eosin and were evaluated by a trained pathologist, to identify residual tumor cells at the site of injection, and were being reported as positive for the existence of residual tumor cells or as negative for a complete lack of any evidence of residual tumor cells.
Dosing schemes are outlined in Table 1.

[4] = Gemcitabine i.v. 240 mg/kg qw (h:0) x6
[5] = BAL101553 p.o. 8 mg/kg qd (h:4) x42
[6] = BAL101553 p.o. 10 mg/kg qd (h:4) x42
[7] = BAL101553 p.o. 16 mg/kg qd (h:4) x42

For `N#CCCNc1nonc1-c1nc2ccccc2n1CC(=O)c1ccc(N)cc1` [BAL27862, 3-(4-{1-[2-(4-Amino-phenyl)-2-oxo-ethyl]-1H-benzoimidazol-2-yl}-furazan-3-ylamino)-propionitrile], the “plasma concentrations, single agents versus combination” value [1] was “did not change significantly”.
With `Nc1ccn([C@@H]2O[C@H](CO)[C@@H](O)C2(F)F)c(=O)n1` [Gemcitabine, gemcitabine, reference compound] the “plasma concentrations, single agents versus combination” value [1] was “did not change significantly”, the “# of regressed tumors (total)” value [2, 4] was 4 (10) and the T/C [2, 4] was 0.03. For the same molecule, the “# of confirmed cures (total)” value [2, 4] was 0 (10), the “# of tumors with TV ≤ 4 mm^3 (total)” value [2, 4] was 1 (10) and the “% cures” value [2, 4] was 0%. For the same molecule, the “tumor free animals / cures (in words)” value [2] was “did not lead to tumor free animals (no cures)”, the “tumor regression (in words)” value ([2]; single agent treatment (BAL101553 even at 16 n/kg; Gemcitabine SoC)) was “induced regression in some of the animals” and the Mortalities ([3]; Gemcitabine i.v. 240 mg/kg qw (h:0) x6, day 21 after first dose, 1 animal culled on day 8 (body-weight loss of more than 20%)) was 1/10*. The “Body-weight change” value ([3]; mouse, in vivo, iv, 240 mg/kg) was 0.9 ± 0.8 g.
In the case of `N#CCCNc1nonc1-c1nc2ccccc2n1CC(=O)c1ccc(NC(=O)[C@@H](N)CCCCN)cc1` [BAL101553, (S)-2,6-Diamino-hexanoic acid [4-(2-{2-[4-(2-cyano-ethylamino)-furazan-3-yl]-benzoimidazol-1-yl}-acetyl)-phenyl]-amide], the “# of regressed tumors (total)” value [2, 5] is reported as 0 (10), the T/C [2, 5] is reported as 0.52 and the “# of confirmed cures (total)” value [2, 5] is reported as 0 (10). For the same molecule, the “# of tumors with TV ≤ 4 mm^3 (total)” value [2, 5] was 0 (20), the “% cures” value [2, 5] was 0% and the “# of regressed tumors (total)” value [2, 6] was 0 (10). For the same molecule, the T/C [2, 6] was 0.33, the “# of confirmed cures (total)” value [2, 6] was 0 (10) and the “# of tumors with TV ≤ 4 mm^3 (total)” value [2, 6] was 0 (10). The “% cures” value [2, 6] was 0%, the “# of regressed tumors (total)” value [2, 7] was 0 (10) and the T/C [2, 7] was 0.28. The “# of confirmed cures (total)” value [2, 7] was 0 (10), the “# of tumors with TV ≤ 4 mm^3 (total)” value [2, 7] was 0 (10) and the “% cures” value [2, 7] was 0%. The “tumor free animals / cures (in words)” value [2] was “did neither lead to tumor free animals”, the Mortalities ([3]; female, NMRI nu/nu, mouse, in vivo, po, 8 mg/kg, 21 day) was 0/10 and the Mortalities ([3]; female, NMRI nu/nu, mouse, in vivo, po, 10 mg/kg, 21 day) was 0/10. For the same molecule, the Mortalities ([3]; female, NMRI nu/nu, mouse, in vivo, po, 16 mg/kg, 21 day) was 0/10, the “Body-weight change” value ([3]; mouse, in vivo, po, 8 mg/kg) was 0.9 ± 0.8 g and the “Body-weight change” value ([3]; mouse, in vivo, po, 10 mg/kg) was 1.0 ± 1.2 g. The “Body-weight change” value ([3]; mouse, in vivo, po, 16 mg/kg) was 1.1 ± 0.9 g.
